Laboratory results: ChEMBL document CHEMBL1126075, “Chemistry and anti-HIV properties of 2'-fluoro-2',3'-dideoxyarabinofuranosylpyrimidines” (J Med Chem, 1992)

Assays:
[1] = Partition coefficient (logP); assay type: physicochemical; conditions: octanol/water
[2] = test system: ATH-8 cell line; test: Percent protection of ATH8 cells from HIV-induced cytopathic effects at a concentration of 5 uM.; assay type: functional, Homo sapiens
[3] = test system: ATH-8 cell line; test: Percent protection of ATH8 cells from HIV-induced cytopathic effects at a concentration of 0.2 uM.; assay type: functional, Homo sapiens
[4] = test system: ATH-8 cell line; test: Percent protection of ATH8 cells from HIV-induced cytopathic effects at a concentration of 1 uM.; assay type: functional, Homo sapiens
[5] = test system: ATH-8 cell line; test: Percent cytotoxicity against ATH8 cells at a concentration of 0.2 uM.; assay type: functional; conditions: Homo sapiens
[6] = test system: ATH-8 cell line; test: Percent cytotoxicity against ATH8 cells at a concentration of 0.5 uM.; assay type: functional; conditions: Homo sapiens
[7] = test system: ATH-8 cell line; test: Percent cytotoxicity against ATH8 cells at a concentration of 1 uM.; assay type: functional; conditions: Homo sapiens
[8] = test system: ATH-8 cell line; test: Percent cytotoxicity against ATH8 cells at a concentration of 5 uM.; assay type: functional; conditions: Homo sapiens
[9] = test system: CCRF-CEM; test: Effect on HIV-induced cytopathogenesis in CEM cells.; assay type: functional, cell-based; conditions: Homo sapiens
[10] = Therapeutic index (IC50/EC50) was determined; conditions: read-out: TI
[11] = test system: ATH-8 cell line; test: Percent protection of ATH8 cells from HIV-induced cytopathic effects at a concentration of 0.5 uM.; assay type: functional, Homo sapiens

Work on Nc1nc(=O)n(C2OC(CO)CC2F)cc1Cl (stereo not given) yielded a logP [1] of -0.46.

Nc1nc(=O)n([C@@H]2CC[C@H](CO)O2)cc1F gave a Protection [2] of 99%, a Protection [3] of 71% and a Protection [4] of 100%. It also gave a logP [1] of -1.09, a cytotoxicity at 0.2 µM [5] of 0% and a cytotoxicity at 0.5 µM [6] of 0%. For the same compound, the cytotoxicity at 1 µM [7] was 1%, the cytotoxicity at 5 µM [8] was 4% and the EC50 [9] was 0.1 µM. The IC50 [9] was greater than 40 µM, the selectivity ratio [10] was greater than 400 and the Protection [11] was 96%.

With Nc1ccn([C@H]2C=C[C@@H](CO)O2)c(=O)n1 the logP [1] was -1.57.

For Cc1cn([C@@H]2O[C@H](CO)C[C@H]2F)c(=O)[nH]c1=O, the logP [1] was -0.44.

For Nc1nc(=O)n(C2OC(CO)CC2F)cc1F (stereo not given), the Protection [2] was 73%, the Protection [3] was 0% and the Protection [4] was 7%. For the same compound, the logP [1] was -0.92, the cytotoxicity at 0.2 µM [5] was 0% and the cytotoxicity at 0.5 µM [6] was 0%. It also gave a cytotoxicity at 1 µM [7] of 8%, a cytotoxicity at 5 µM [8] of 0% and an EC50 [9] of 57.7 µM. For the same compound, the IC50 [9] was greater than 580 µM, the selectivity ratio [10] was greater than 10 and the Protection [11] was 8%.

O=c1ccn([C@@H]2O[C@H](CO)[C@@H](O)[C@H]2O)c(=O)[nH]1 [URIDINE] showed a logP [1] of -1.94.

In the case of O=c1ccn(C2CCC(CO)O2)c(=O)[nH]1 (stereo not given), the logP [1] is reported as -1.

For Nc1ccn([C@@H]2O[C@H](CO)C[C@@H]2F)c(=O)n1, the Protection [2] was 53%, the Protection [3] was 3% and the Protection [4] was 56%. The logP [1] was -1.18, the cytotoxicity at 0.2 µM [5] was 0% and the cytotoxicity at 0.5 µM [6] was 8%. For the same compound, the cytotoxicity at 1 µM [7] was 4%, the cytotoxicity at 5 µM [8] was 1% and the EC50 [9] was 1.1 µM. The IC50 [9] was 43 µM, the selectivity ratio [10] was 39 and the Protection [11] was 25%.

O=c1[nH]c(=O)n(C2OC(CO)CC2F)cc1F (stereo not given) showed a logP [1] of -0.72.

Compound O=c1ccn(C2OC(CO)CC2F)c(=O)[nH]1 (stereo not given) has a logP [1] of -0.87.

Work on Nc1ccn([C@H]2CC[C@@H](CO)O2)c(=O)n1 [ZALCITABINE] yielded a Protection [2] of 88%, a Protection [3] of 93% and a Protection [4] of 100%. The cytotoxicity at 0.2 µM [5] was 6%, the cytotoxicity at 0.5 µM [6] was 0% and the cytotoxicity at 1 µM [7] was 9%. The cytotoxicity at 5 µM [8] was 1%, the EC50 [9] was 0.3 µM and the IC50 [9] was 120 µM. The selectivity ratio [10] was 380 and the Protection [11] was 100%.

With O=c1[nH]c(=O)n(C2OC(CO)CC2F)cc1Cl (stereo not given) the logP [1] was -0.28.
